Test results from patent US20230065816A1, “METHODS FOR PREVENTING AND REVERSING OPIOID ANALGESIC TOLERANCE IN SUBJECTS WITH CHRONIC PAIN” (The Reasearch Foundation for Suny, priority 2020, published 2023).
“Also recorded” adds a separate entry of the source.

Tests used:
[1] = system: rats with spinal nerve ligation (SpNL); assay: von Frey mechanical allodynia test, spinal morphine tolerance from chronic i.t. morphine; settings: for reversal of spinal morphine antiallodynic tolerance by the single agent: CSD 10 μg or PP2 300 ng i.t. 45 min before i.t. morphine on day 8 or 9 of daily i.t. 15 μg morphine; for reversal of spinal morphine antiallodynic tolerance by the single agent / duration of reversal of morphine tolerance by the single agent: FIGS. 3A, 3B; for duration of reversal of morphine tolerance by the single agent: CSD 10 μg or PP2 300 ng i.t.
[2] = system: rats with spinal nerve ligation (SpNL); assay: von Frey mechanical allodynia test, tolerance from chronic systemic morphine (s.c. morphine pellets); settings: for reversal of spinal morphine antiallodynic tolerance induced by chronic systemic morphine, single agent: CSD or S-CSD 10 μg, PP2 or PP3 300 ng, i.t. on day 8, 45 min before i.t. morphine; for prevention of antiallodynic tolerance to chronic systemic morphine, male rats / prevention of antiallodynic tolerance to chronic systemic morphine, female rats: i.t. 45 min before s.c. morphine pellet implantation on days 1, 3, 5; for prevention of antiallodynic tolerance to chronic systemic morphine, male rats: 10 μg; for prevention of antiallodynic tolerance to chronic systemic morphine, female rats: dose 6 μg or 10 μg
rats [3] = assay: tail flick latency test, spinal morphine tolerance from chronic i.t. morphine; settings: 9 days of daily 15 μg i.t. morphine
rats [4] = assay: tail flick latency test, tolerance from chronic systemic morphine (s.c. morphine pellets); settings: i.t. CSD with s.c. morphine pellets; FIG. 4B

`CC(C)(C)n1nc(-c2ccc(Cl)cc2)c2c(N)ncnc21` [PP2, 3-(4-chlorophenyl) 1-(1,1-dimethylethyl)-1H-pyrazolo[3,4-d]pyrimidin-4-amine] was tested, and the “reversal of spinal morphine antiallodynic tolerance by the single agent” value [1] was “attenuated spinal opioid antiallodynic tolerance”, the “duration of reversal of morphine tolerance by the single agent” value ([1]; chronic i.t. morphine) was “lasted for multiple days” and the “share of opioid naive i.t. morphine responsiveness restored” value ([1]; PP2 300 ng i.t. 45 min before i.t. morphine, chronic i.t. morphine, FIG. 3B) was “approximately 60%”. The “duration of tolerance-reversing effect” value ([2]; CSD 10 μg or PP2 300 ng i.t. on day 8, chronic systemic morphine, FIGS. 6A, 6B) was “less than 24 hours” and the “reversal of spinal morphine antiallodynic tolerance induced by chronic systemic morphine, single agent” value ([2]; FIGS. 6A, 6B) was “essentially fully restored i.t. morphine antiallodynic action; also recorded: fully restored i.t. morphine antiallodynic effects”.
With `Nc1ncnc2c1cnn2-c1ccccc1` [PP3, 1-Phenyl-1H-pyrazolo[3,4-d]pyrimidin-4-amine] the “reversal of spinal morphine antiallodynic tolerance induced by chronic systemic morphine, single agent” value ([2]; FIGS. 6A, 6B) was “failed to alter antiallodynic action of i.t. morphine; also recorded: devoid of any effect”.
`CN1CC[C@]23c4c5ccc(O)c4O[C@H]2[C@@H](O)C=C[C@H]3[C@H]1C5` [morphine, (5a,6a)-7,8-didehydro-4,5-epoxy-17-methylmorphinan-3,6-diol] was tested, and the “analgesic effect of i.t. morphine after chronic daily i.t. morphine (tolerance), tail flick” value (rats [3]) was “lost most of its analgesic effect”, the “i.t. morphine antiallodynia ED50, morphine naive rats” value ([1]; FIG. 1B) was 3.9 µg and the “i.t. morphine antiallodynia ED50, morphine tolerant rats” value ([1]; after chronic daily i.t. morphine, FIG. 1B) was 13.1 µg. The “times more morphine required in tolerant than in naive rats for comparable antiallodynia” value ([1]; chronic daily i.t. morphine, FIG. 1B) was 3.4 times, the “antiallodynic responsiveness to i.t. morphine after chronic daily i.t. morphine (tolerance)” value ([1]; i.t. morphine 15 μg daily, 6 to 9 days, no CSD/PP2) was “complete loss of antiallodynic responsiveness; also recorded: lost most of its antiallodynic effectiveness” and the “i.t. morphine antiallodynia ED50, opioid naive rats” value ([2]; before pelleting, FIG. 5) was 5.5 µg. The “fold increase of i.t. morphine ED50 in tolerant vs. opioid naive rats” value ([2]; chronic systemic morphine, FIG. 5) was 3.6 fold, the “reduction of i.t. morphine antiallodynic effects by chronic systemic morphine” value ([2]; day 7 of morphine pelleting, before PP2, FIG. 6B) was “approximately 80%” and the “i.t. morphine antiallodynia ED50, chronic systemic morphine-treated (tolerant) rats” value ([2]; s.c. morphine pellets, FIG. 5) was 19.7 µg.
For “H-Arg-Gln-Ile-Lys-Ile-Trp-Phe-Gln-Asn-Arg-Arg-Met-Lys-Trp-Lys-Lys-Asp-Gly-Ile-Trp-Lys-Ala-Ser-Phe-Thr-Thr-Phe-Thr-Val-Thr-Lys-Tyr-Trp-Phe-Tyr-Arg-OH (H-RQIKIWFQNRRMKWKKDGIWKASFTTFTVTKYWFYR-OH) [CSD]”, the “persistence of antinociceptive tolerance blockade after the last i.t. treatment (day 5), tail flick” value (rats [4]) was 2 days, the “reversal of spinal morphine antiallodynic tolerance by the single agent” value [1] was “fully restored i.t morphine antiallodynia; also recorded: tolerance reversal was complete” and the “duration of reversal of morphine tolerance by the single agent” value ([1]; chronic i.t. morphine) was “lasted for multiple days”. For the same molecule, the “reversal of spinal morphine antiallodynic tolerance induced by chronic systemic morphine, single agent” value ([2]; FIGS. 6A, 6B) was “essentially fully restored i.t. morphine antiallodynic action”, the “reversal of tolerance and effect of reapplication of i.t. CSD, male rat” value ([2]; i.t. 6 μg CSD on day 9, reapplication on day 12, morphine pellets, FIG. 7 right panel) was “lasted through day 10; also recorded: again restored morphine antiallodynia” and the “prevention of antiallodynic tolerance to chronic systemic morphine, male rats” value ([2]; FIG. 4C) was “works identical in males as in females; also recorded: fully manifest”. The “prevention of antiallodynic tolerance to chronic systemic morphine, female rats” value ([2]; FIG. 4A) was “increase to cutoff in von Frey thresholds; also recorded: fully manifest”, the “unmasking of antiallodynia of on boarded morphine pellet in systemic morphine tolerant animals” value ([2]; i.t. CSD 0.33 μg, virtually no pretreatment with i.t. morphine) was “unmasked robust morphine (from on boarded morphine pellet) antiallodynia” and the “prevention of tolerance and effect of reapplication of i.t. CSD, female rats” value ([2]; i.t. CSD 6 μg before morphine pelleting, last on day 5, re-applied on day 11, FIG. 7 left panel) was “prevented morphine tolerance development; also recorded: morphine antiallodynia was fully manifest”. For the same molecule, the “reversal of tolerance at lower dose of CSD” value ([2]; i.t. CSD 3, 1, or 0.33 μg, chronic systemic morphine, data not shown) was “Full reversal of tolerance development”, the “persistence of tolerance blockade after the last i.t. treatment (day 5), female rats” value ([2]; i.t. CSD on days 1, 3, 5 with s.c. morphine pellets, FIG. 4A) was 3 days and the “persistence of tolerance blockade after the last i.t. treatment (day 5), male rats” value ([2]; i.t. CSD on days 1, 3, 5 with s.c. morphine pellets, FIG. 4C) was 3 days.
“H-Arg-Gln-Ile-Lys-Ile-Trp-Phe-Gln-Asn-Arg-Arg-Met-Lys-Trp-Lys-Lys-Trp-Gly-Ille-Asp-Lys-Ala-Ser-Phe-Thr-Thr-Phe-Thr-Val-Thr-Lys-Tyr-Trp-Phe-Arg-Tyr-OH (H-RQIKIWFQNRRMKWKKWGIDKASFTTFTVTKYWFRY-OH) [S-CSD]” was tested, and the “reversal of spinal morphine antiallodynic tolerance induced by chronic systemic morphine, single agent” value ([2]; FIGS. 6A, 6B) was “failed to alter antiallodynic action of i.t. morphine; also recorded: had no effect”, the “prevention of antiallodynic tolerance to chronic systemic morphine, male rats” value ([2]; FIG. 4C) was “failed to alter morphine tolerance development” and the “prevention of antiallodynic tolerance to chronic systemic morphine, female rats” value ([2]; FIG. 4A) was “remained minimal; also recorded: failed to alter morphine tolerance development”.
